pIC50: −log10 of the molar value.
Assays:
[1] = Oral bioavailability in ICR mouse at 20 mg/kg measured up to 48 hrs by LC-MS/MS analysis; assay type: ADME, organism-based; conditions: in vivo
[2] = Oral absorption in C57BL/6J mouse at 20 mg/kg measured up to 48 hrs by LC-MS/MS analysis; assay type: ADME, organism-based; conditions: in vivo
[3] = Inhibition of recombinant PKCgamma (unknown origin) expressed in baculovirus infected in Sf9 cells using biotin-Ahx-peptide as substrate; design: species or system Homo sapiens

Compound | bioavailability [1] | Fa at 48 h [2] | pIC50 [3]
C=CC(=O)Nc1ccc2[nH]c(=O)n(C3CCN(Cc4ccc(-c5nc6cc[nH]c(=O)c6cc5-c5ccccc5)cc4)CC3)c2c1 [Borussertib] | < 5% | 39.6% | 
Cc1n[nH]c2ccc(-c3cncc(OC[C@H](N)Cc4c[nH]c5ccccc45)c3)cc12 |  |  | 5.85

Source: ChEMBL document CHEMBL5518247 (J Med Chem, 2024)
